According to patent publication US8802663B2, “Pyrazole oxadiazole derivatives as S1P1 agonists” (Merck Serono SA, priority 2009, dated 2014):
Structures can show the parent of a compound that is named as a salt.

Experiments:
S1P1 [1] = target: T1, S1P1 (Homo sapiens (Human), UniProt P21453); assay: Receptor binding assay, [33P]sphingosine 1-phosphate, membranes from CHO cells expressing S1P1; details: CHO cell membranes, 25 pM [33P]sphingosine 1-phosphate
Method: (§1) Receptor binding assay: Membranes were prepared from CHO cells expressing S1P1 or S1P3 for use in ligand and […] binding studies. Cells were suspended in 50 mM TRIS, pH 7.4, 2 mM EDTA, 250 mM Sucrose (buffer A) and 1× Complete protease inhibitor cocktail (Roche), and disrupted at 4° C. by N2 decompression using a cell disruption bomb (Parr Instrument). Following centrifugation at 1000 RPM for 10 min at 4° C., the supernatant was suspended in buffer A and centrifuged again at 19000 RPM for 60 min at 4° C. The pellet was then suspended in 10 mM HEPES, pH 7.4, 1 mM EDTA, 250 mM Sucrose (Buffer B), and 1× Complete EDTA-free protease inhibitor cocktail and homogenized using a potter. Membranes were flash frozen in liquid N2 and stored at −80° C. [33P]sphingosine 1-phosphate (3000 Ci/mmol; American Radiolabeled Chemicals, Inc.) was added to test compounds in DMSO. Membranes and WGA SPA beads (GE Healthcare) were added to give a final volume of 100 μl in 96-well plates with assay concentrations of 25 pM or 10 pM [33P]sphingosine 1-phosphate (respectively for S1P1 or S1P3), 50 mM HEPES, pH 7.5, 5 mM MgCl2, 100 mM NaCl, 0.4% fatty acid-free BSA, 1-5 μg/well of proteins and 100 μg/well of WGA SPA beads. Binding was performed for 60 min at RT on a shaker and bound radioactivity was measured on a PerkinElmer 1450 MicroBeta counter. Specific binding was calculated by subtracting remaining radioactivity in the presence of 1000-fold excess of unlabeled SIP. Binding data were analyzed using the GraphPad Prism program.

S1P1 [2] = target: T1, S1P1; assay: 35S-GTPγS binding, membranes from CHO cells expressing S1P1; assay type: biochemical; details: CHO cell membranes
S1P3 = S1P3 (Homo sapiens (Human), UniProt Q99500); assay: 35S-GTPγS binding, membranes from CHO cells expressing S1P3; assay type: biochemical; details: CHO cell membranes
Method: as §1
Measurements of 35S-GTPγS Binding: Membranes (1 to 10 μg protein) prepared as described above, were incubated in 96-well Scintiplates (PerkinElmer) with test compounds diluted in DMSO, in 180 μl of 20 mM HEPES, pH 7.4, 10 mM MgCl2, 2 μg/well Saponin, 0.2% fatty acid free BSA (Assay buffer), 140 mM NaCl and 1.7 μM GDP. The assay was initiated with the addition of 20 μl of 1.5 nM [35S]-GTPγS (1100 Ci/mmol; GE Healthcare) in assay buffer. After 60 min incubation at 30° C. on a shaker, plates were centrifuged for 10 min at 2000 RPM. Supernatant was discarded and membrane bound radioactivity was measured on a PerkinElmer 1450 MicroBeta counter. Triplicate samples were averaged and expressed as % response relative to S1P activation in absence of compound (n=2).

Chain of S1P3 (Q99500 whole entry, species assumed): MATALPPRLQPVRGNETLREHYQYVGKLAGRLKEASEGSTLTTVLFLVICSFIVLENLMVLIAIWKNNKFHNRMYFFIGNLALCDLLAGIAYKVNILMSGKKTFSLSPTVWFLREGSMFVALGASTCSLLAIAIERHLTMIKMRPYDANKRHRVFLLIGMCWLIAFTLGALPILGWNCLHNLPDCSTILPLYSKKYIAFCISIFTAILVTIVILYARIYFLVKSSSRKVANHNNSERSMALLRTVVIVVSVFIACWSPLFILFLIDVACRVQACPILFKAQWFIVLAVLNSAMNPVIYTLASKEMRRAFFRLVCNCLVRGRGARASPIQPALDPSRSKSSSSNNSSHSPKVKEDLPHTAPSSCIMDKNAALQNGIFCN
T1 sequence (P21453 whole entry, species assumed): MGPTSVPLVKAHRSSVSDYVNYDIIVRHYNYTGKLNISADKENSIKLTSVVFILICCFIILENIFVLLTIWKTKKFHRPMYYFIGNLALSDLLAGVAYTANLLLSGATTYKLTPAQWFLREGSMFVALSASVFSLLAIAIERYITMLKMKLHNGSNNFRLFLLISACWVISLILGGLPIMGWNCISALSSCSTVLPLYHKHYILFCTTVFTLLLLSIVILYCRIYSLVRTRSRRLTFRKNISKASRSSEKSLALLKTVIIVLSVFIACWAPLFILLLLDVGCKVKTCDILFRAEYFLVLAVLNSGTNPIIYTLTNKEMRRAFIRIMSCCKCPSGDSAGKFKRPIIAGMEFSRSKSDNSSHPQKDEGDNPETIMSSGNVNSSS

SMILES | Ki (S1P1 [1]) | EC50 (S1P1 [2]) | EC50 (S1P3)
COCc1c(-c2nc(-c3cc(F)ccc3F)no2)cnn1-c1ccccc1 [Example 1, 3-(2,5-difluorophenyl)-5-(5-(methoxymethyl)-1-phenyl-1H-pyrazol-4-yl)-1,2,4-oxadiazole] | 272 nM | 304 nM | > 20000 nM
CS(=O)(=O)c1cccc(-c2noc(-c3cnn(-c4ccccc4F)c3-c3ccncc3)n2)c1 [Example 9, 4-(1-(2-fluorophenyl)-4-{3-[3-(methylsulfonyl)phenyl]-1,2,4-oxadiazol-5-yl}-1H-pyrazol-5-yl)pyridine] | 5 nM | 28 nM | > 20000 nM
Fc1ccc(F)c(-c2noc(-c3cnn(C4CCCCC4)c3-c3ccccc3)n2)c1 [Example 11] | 9 nM | 6 nM | 142 nM
FC(F)(F)c1cccc(-c2noc(-c3cnn(C4CCCCC4)c3-c3ccncc3)n2)c1 [Example 28, 4-(1-cyclohexyl-4-{3-[3-(trifluoromethyl)phenyl]-1,2,4-oxadiazol-5-yl}-1H-pyrazol-5-yl)pyridine] |  | 16 nM | 2660 nM
Fc1ccc(F)c(-c2noc(-c3cnn(C4CCCCC4)c3C3CCOCC3)n2)c1 [Example 31, 5-[1-cyclohexyl-5-(tetrahydro-2H-pyran-4-yl)-1H-pyrazol-4-yl]-3-(2,5-difluorophenyl)-1,2,4-oxadiazole] |  | 12 nM | > 20000 nM
CC1CCCCC1n1ncc(-c2nc(-c3cc(F)ccc3F)no2)c1-c1ccncc1 (stereo not drawn) [Example 34, 4-[4-[3-(2,5-difluorophenyl)-1,2,4-oxadiazol-5-yl]-1-(2-methylcyclohexyl)-1H-pyrazol-5-yl]pyridine] |  | 6 nM | 1610 nM
CC(C)Cn1ncc(-c2nc(-c3cccc(C(F)(F)F)c3)no2)c1-c1ccncc1 [Example 37, 4-(1-isobutyl-4-{3-[3-(trifluoromethyl)phenyl]-1,2,4-oxadiazol-5-yl}-1H-pyrazol-5-yl)pyridine] |  | 9 nM | > 20000 nM
c1cc(-c2c(-c3nc(-c4ccc5[nH]ncc5c4)no3)cnn2C2CCCCC2)ccn1 [Example 38, 5-[5-(1-cyclohexyl-5-pyridin-4-yl-1H-pyrazol-4-yl)-1,2,4-oxadiazol-3-yl]-1H-indazole] | 68 nM | 3 nM | 474 nM
CC(C)Cn1ncc(-c2nc(-c3ccc4[nH]ncc4c3)no2)c1-c1ccncc1 [Example 40, 5-[5-(1-isobutyl-5-pyridin-4-yl-1H-pyrazol-4-yl)-1,2,4-oxadiazol-3-yl]-1H-indazole] |  | 11 nM | 523 nM
CN(C)Cc1ccc(-c2noc(-c3cnn(C4CCCCC4)c3-c3ccncc3)n2)cc1 [Example 41, 1-{4-[5-(1-cyclohexyl-5-pyridin-4-yl-1H-pyrazol-4-yl)-1,2,4-oxadiazol-3-yl]phenyl}-N,N-dimethylmethanamine] |  | 9 nM | 486 nM
O=C(O)C1CN(Cc2ccc(-c3noc(-c4cnn(C5CCCCC5)c4-c4ccncc4)n3)cc2)C1 [Example 42, 1-{4-[5-(1-cyclohexyl-5-pyridin-4-yl-1H-pyrazol-4-yl)-1,2,4-oxadiazol-3-yl]benzyl}azetidine-3-carboxylic acid] |  | 1 nM | 1020 nM
C[C@@H]1CCCC[C@@H]1n1ncc(-c2nc(-c3cc(F)ccc3F)no2)c1-c1ccccc1 [Example 47, 3-(2,5-difluorophenyl)-5-{1[(1S,2R)-2-methylcyclohexyl]-5-phenyl-1H-pyrazol-4-yl}-1,2,4-oxadiazole] |  | 8 nM | 571 nM
CC(C)Cn1ncc(-c2nc(-c3ccc(CN4CC(C(=O)O)C4)cc3)no2)c1-c1ccncc1 [Example 79, 1-(4-(5-(1-isobutyl-5-(pyridin-4-yl)-1H-pyrazol-4-yl)-1,2,4-oxadiazol-3-yl)benzyl)azetidine-3-carboxylic acid] | 2.3 nM | 9.5 nM | 1470 nM
CC(C)Cn1ncc(-c2nc(-c3ccc(CNCCC(=O)O)cc3)no2)c1-c1ccncc1 [Example 89, 3-(4-(5-(1-isobutyl-5-(pyridin-4-yl)-1H-pyrazol-4-yl)-1,2,4-oxadiazol-3-yl)benzylamino)propanoic acid] |  | 12 nM | 1640 nM
c1cc(-c2c(-c3nc(-c4ccc(Cn5cncn5)cc4)no3)cnn2C2CCCCC2)ccn1 [Example 91, 3-(4-((1H-1,2,4-triazol-1-yl)methyl)phenyl)-5-(1-cyclohexyl-5-(pyridin-4-yl)-1H-pyrazol-4-yl)-1,2,4-oxadiazole] |  | 8.5 nM | 147 nM
CC(C)Cn1ncc(-c2nc(-c3ccc(CN4CC(C(=O)O)C4)cc3)no2)c1C1CCOCC1 [Example 96, 1-(4-(5-(1-isobutyl-5-(tetrahydro-2H-pyran-4-yl)-1H-pyrazol-4-yl)-1,2,4-oxadiazol-3-yl)benzyl)azetidine-3-carboxylic acid] | 6.5 nM | 31 nM | 2250 nM
O=C(O)C1CN(Cc2ccc(-c3noc(-c4cnn(C5CCCCC5)c4C4CCOCC4)n3)cc2)C1 [Example 97, 1-(4-(5-(1-cyclohexyl-5-(tetrahydro-2H-pyran-4-yl)-1H-pyrazol-4-yl)-1,2,4-oxadiazol-3-yl)benzyl)azetidine-3-carboxylic acid] | 0.7 nM | 1.4 nM | 138 nM
O=C(O)C1CN(Cc2ccc(-c3noc(-c4cnn(CC5CC5)c4-c4ccncc4)n3)cc2)C1 [Example 101, 1-(4-(5-(1-(cyclopropylmethyl)-5-(pyridin-4-yl)-1H-pyrazol-4-yl)-1,2,4-oxadiazol-3-yl)benzyl)azetidine 3-carboxylic acid, formate] | 1.8 nM | 12 nM | 1620 nM
O=C(O)CCNCc1ccc(-c2noc(-c3cnn(C4CCCCC4)c3C3CCOCC3)n2)cc1 [Example 102, 3-(4-(5-(1-cyclohexyl-5-(tetrahydro-2H-pyran-4-yl)-1H-pyrazol-4-yl)-1,2,4-oxadiazol-3-yl)benzylamino)propanoic acid] | 0.8 nM | 2.1 nM | 214 nM
OCc1ccc(-c2noc(-c3cnn(C4CCCCC4)c3C3CCCO3)n2)cc1 (stereo not drawn) [Example 117, (4-(5-(1-cyclohexyl-5-(tetrahydrofuran-2-yl)-1H-pyrazol-4-yl)-1,2,4-oxadiazol-3-yl)phenyl)methanol] | 2 nM | 11 nM | 622 nM
COCCc1c(-c2nc(-c3ccc(CN4CC(C(=O)O)C4)cc3)no2)cnn1C1CCCCC1 [Example 120, 1-(4-(5-(1-cyclohexyl-5-(2-methoxyethyl)-1H-pyrazol-4-yl)-1,2,4-oxadiazol-3-yl)benzyl)azetidine-3-carboxylic acid] | 0.1 nM | 0.5 nM | 489 nM
O=C(O)C1CCN(Cc2ccc(-c3noc(-c4cnn(C5CCCCC5)c4C4CCCO4)n3)cc2)CC1 (stereo not drawn) [Example 125, 1-(4-(5-(1-cyclohexyl-5-(tetrahydrofuran-2-yl)-1H-pyrazol-4-yl)-1,2,4-oxadiazol-3-yl)benzyl)piperidine-4-carboxylic acid] | 0.6 nM | 1.9 nM | 427 nM
c1cc(-c2c(-c3nc(-c4ccc(Cn5ccnc5)cc4)no3)cnn2C2CCCCC2)ccn1 [Example 136, 4-{2-Cyclohexyl-4-[3-(4-imidazol-1-ylmethyl-phenyl)-[1,2,4]oxadiazol-5-yl]-2H-pyrazol-3-yl}-pyridine] |  |  | 58.3 nM
